Data taken from article PMC7660650, “Chemical Starting Matter for HNF4α Ligand Discovery and Chemogenomics” (International Journal of Molecular Sciences, 2020).

target: T1, Gal4-HNF4α (human HNF4α LBD) (Homo sapiens, UniProt P41235); assay: Hybrid Gal4-HNF4α reporter gene assay in transiently transfected HEK293T cells; assay type: cell-based; settings: not given
T1 construct: uniprot entry: P41235-1, residues 142-377; expressed in transfected cells; host or cells: HEK293T
T1 sequence (P41235 142-377): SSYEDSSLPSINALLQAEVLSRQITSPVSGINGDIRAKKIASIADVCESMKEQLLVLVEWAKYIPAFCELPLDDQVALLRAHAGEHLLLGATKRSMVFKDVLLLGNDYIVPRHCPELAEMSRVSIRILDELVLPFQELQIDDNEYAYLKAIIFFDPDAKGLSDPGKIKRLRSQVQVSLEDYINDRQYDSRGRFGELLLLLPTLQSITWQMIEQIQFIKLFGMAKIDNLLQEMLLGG

With c1ccc(C2COCCN2)cc1 (stereo not drawn) [Prestw-Frag-3705, C1COCC(N1)c1ccccc1] the “HNF4a-screening_activity_(mean_of_n=2)” value was 0.9945.

same assay, conditions: Table S1, primary screening, 50 µM

In order of rising “HNF4a-screening_activity_(mean_of_n=2)” value:
1. Oc1ccc(Cc2ccccc2)cc1 [Prestw-Frag-3455, Oc1ccc(Cc2ccccc2)cc1]  0.7887
2. O=C1Cc2cc(F)ccc2N1 [Prestw-Frag-3667, Fc1ccc2NC(=O)Cc2c1]  0.8142
3. Nc1nc(N)nc(-c2ccccc2)n1 [Prestw-Frag-3190, Nc1nc(N)nc(n1)-c1ccccc1]  0.8184
4. CNC(=O)c1c(-c2ccccc2)noc1C [Prestw-Frag-3690, CNC(=O)c1c(C)onc1-c1ccccc1]  0.8222
5. NCc1ncc[nH]1 [Prestw-Frag-3689, NCc1ncc[nH]1]  0.8561
6. Nc1ncc([N+](=O)[O-])s1 [Prestw-Frag-3324, Nc1ncc(s1)[N+]([O-])=O]  0.8744
7. COc1ccc2c(c1)CCCC2 [Prestw-Frag-3188, COc1ccc2CCCCc2c1]  0.8877
8. Nc1cnc2ccccc2n1 [Prestw-Frag-3679, Nc1cnc2ccccc2n1]  0.8882
9. O=C1CC2(CCCC2)CC(=O)N1 [Prestw-Frag-3680, O=C1CC2(CCCC2)CC(=O)N1]  0.8965
10. CCCCc1nc(Cl)c(CO)[nH]1 [Prestw-Frag-3114, CCCCc1nc(Cl)c(CO)[nH]1]  0.9053
11. O=C(O)CC1CCCCC1 [Prestw-Frag-3668, OC(=O)CC1CCCCC1]  0.9215
12. CC(=O)c1ccc2c(c1)OCO2 [Prestw-Frag-3686, CC(=O)c1ccc2OCOc2c1]  0.9343
13. Nc1ccc2c(c1)CCCC2 [Prestw-Frag-3682, Nc1ccc2CCCCc2c1]  0.958
14. OCCc1ccc(Cl)cc1 [Prestw-Frag-3062, OCCc1ccc(Cl)cc1]  0.9659
15. CCN(CC)C(=O)/C=C/c1ccccc1 [Prestw-Frag-3088, CCN(CC)C(=O)\C=C\c1ccccc1]  0.9663
16. O=C(c1ccccc1)N1CCNCC1 [Prestw-Frag-3677, O=C(N1CCNCC1)c1ccccc1]  0.9693
17. Oc1cccc2[nH]ccc12 [Prestw-Frag-3696, Oc1cccc2[nH]ccc12]  0.9739
18. OCc1ccc(F)cc1F [Prestw-Frag-3100, OCc1ccc(F)cc1F]  0.9757
19. O=C1c2ccc(Cl)cc2CCc2cccnc21 [Prestw-Frag-3073, Clc1ccc2c(CCc3cccnc3C2=O)c1]  0.9858
20. COc1ccc2[nH]cnc2c1 [Prestw-Frag-3678, COc1ccc2[nH]cnc2c1]  0.9895
21. OCCn1cncn1 [Prestw-Frag-3101, OCCn1cncn1]  0.9898
22. c1ccc2c(c1)CCCN2 [Prestw-Frag-3137, C1CNc2ccccc2C1]  0.9914
23. Oc1ccc2c(c1)CCC2 [Prestw-Frag-3713, Oc1ccc2CCCc2c1]  1.011
24. O=C(c1ccc(C(F)(F)F)cc1)C1CCCCC1 [Prestw-Frag-3334, FC(F)(F)c1ccc(cc1)C(=O)C1CCCCC1]  1.014
25. CN1CCN(c2ccc(N)cc2)CC1 [Prestw-Frag-3670, CN1CCN(CC1)c1ccc(N)cc1]  1.015
26. COc1cc2c(cc1OC)CC(=O)NCC2 [Prestw-Frag-3698, COc1cc2CCNC(=O)Cc2cc1OC]  1.019
27. Fc1cccnc1N1CCCC1 [Prestw-Frag-3150, Fc1cccnc1N1CCCC1]  1.041
28. CCOc1ccccc1C(=N)N [Prestw-Frag-3314, CCOc1ccccc1C(N)=N]  1.051
29. O=C(O)/C=C/c1cnc[nH]1 [Prestw-Frag-3090, OC(=O)\C=C\c1cnc[nH]1]  1.054
30. O=C(O)CC(c1ccccc1)c1ccccc1 [Prestw-Frag-3250, OC(=O)CC(c1ccccc1)c1ccccc1]  1.055
31. c1nc(NC2CC2)c2nc[nH]c2n1 [Prestw-Frag-3360, C1CC1Nc1ncnc2[nH]cnc12]  1.055
32. Cc1cn(-c2cc(N)cc(C(F)(F)F)c2)cn1 [Prestw-Frag-3241, Cc1cn(cn1)-c1cc(N)cc(c1)C(F)(F)F]  1.061
33. c1ccc(N2CCN(c3ccccc3)CC2)cc1 [Prestw-Frag-3257, C1CN(CCN1c1ccccc1)c1ccccc1]  1.063
34. CNC(=O)c1c(OC)ccc(Br)c1OC [Prestw-Frag-3704, CNC(=O)c1c(OC)ccc(Br)c1OC]  1.072
35. CC(C(=O)O)c1cccc(F)c1 (stereo not drawn) [Prestw-Frag-3706, CC(C(O)=O)c1cccc(F)c1]  1.072
36. COc1ccc(S(=O)(=O)N2CCNCC2)cc1 [Prestw-Frag-3313, COc1ccc(cc1)S(=O)(=O)N1CCNCC1]  1.073
37. O=C1CN(Cc2ccccc2)CCN1 [Prestw-Frag-3459, O=C1CN(Cc2ccccc2)CCN1]  1.076
38. O=C(O)C(c1ccccc1)c1ccccc1 [Prestw-Frag-3711, OC(=O)C(c1ccccc1)c1ccccc1]  1.082
39. O=C(Cc1ccccc1F)C1CC1 [Prestw-Frag-3198, Fc1ccccc1CC(=O)C1CC1]  1.083
40. Nc1ccn([C@H]2C[C@H](O)[C@@H](CO)O2)c(=O)n1 [Prestw-Frag-3264, Nc1ccn([C@H]2C[C@H](O)[C@@H](CO)O2)c(=O)n1]  1.086
41. CN(C)CCCC(=O)c1ccc(F)cc1 [Prestw-Frag-3693, CN(C)CCCC(=O)c1ccc(F)cc1]  1.093
42. COC(=O)CN1CCc2sccc2C1 [Prestw-Frag-3371, COC(=O)CN1CCc2sccc2C1]  1.101
43. CCOC(=O)c1cccnc1 [Prestw-Frag-3382, CCOC(=O)c1cccnc1]  1.112
44. COc1ccc(CCN)cc1OC [Prestw-Frag-3454, COc1ccc(CCN)cc1OC]  1.113
45. NC(=O)c1ccc2[nH]ccc2c1 [Prestw-Frag-3336, NC(=O)c1ccc2[nH]ccc2c1]  1.118
46. c1ccc(C2CCCNCC2)cc1 (stereo not drawn) [Prestw-Frag-3712, C1CNCCC(C1)c1ccccc1]  1.122
47. Fc1ccc(CN2CCNCC2)cc1 [Prestw-Frag-3673, Fc1ccc(CN2CCNCC2)cc1]  1.124
48. Nc1ncnc2c1ncn2CCO [Prestw-Frag-3329, Nc1ncnc2n(CCO)cnc12]  1.131
49. CNCCN(C)C(c1ccccc1)c1ccccc1 [Prestw-Frag-3452, CNCCN(C)C(c1ccccc1)c1ccccc1]  1.151
50. NC1CCc2ccccc21 (stereo not drawn) [Prestw-Frag-3462, NC1CCc2ccccc12]  1.151
51. Oc1ccccc1OCC(F)(F)F [Prestw-Frag-3225, Oc1ccccc1OCC(F)(F)F]  1.152
52. C#Cc1cccc(N)c1 [Prestw-Frag-3669, Nc1cccc(c1)C#C]  1.159
53. CNS(=O)(=O)CCc1ccccc1 [Prestw-Frag-3368, CNS(=O)(=O)CCc1ccccc1]  1.162
54. Cn1cc(CC(=O)O)c2ccccc21 [Prestw-Frag-3461, Cn1cc(CC(O)=O)c2ccccc12]  1.168
55. CCN1CCCC1CN (stereo not drawn) [Prestw-Frag-3671, CCN1CCCC1CN]  1.171
56. CCN(CC)CCNC(=O)c1ccc(N)c(Cl)c1 [Prestw-Frag-3120, CCN(CC)CCNC(=O)c1ccc(N)c(Cl)c1]  1.18
57. Cn1ccc(=O)[nH]1 [Prestw-Frag-3664, Cn1ccc(=O)[nH]1]  1.182
58. CN1CCN(c2cc(N)ncn2)CC1 [Prestw-Frag-3262, CN1CCN(CC1)c1cc(N)ncn1]  1.186
59. O=C(CCCN1CCNCC1)c1ccc(F)cc1 [Prestw-Frag-3426, Fc1ccc(cc1)C(=O)CCCN1CCNCC1]  1.191
60. NC1CCc2[nH]c3ccccc3c2C1 (stereo not drawn) [Prestw-Frag-3709, NC1CCc2[nH]c3ccccc3c2C1]  1.209
61. O=C1COc2cc(O)ccc21 [Prestw-Frag-3703, Oc1ccc2C(=O)COc2c1]  1.217
62. CN1CCNCC1=O [Prestw-Frag-3460, CN1CCNCC1=O]  1.233
63. CS(=O)(=O)NC(Cc1ccccc1)C(=O)O (stereo not drawn) [Prestw-Frag-3362, CS(=O)(=O)NC(Cc1ccccc1)C(O)=O]  1.241
64. O=C1CNCCN1 [Prestw-Frag-3458, O=C1CNCCN1]  1.246
65. O=C1COCCN1 [Prestw-Frag-3463, O=C1COCCN1]  1.252
66. Nc1ccc(CS(=O)(=O)N2CCCC2)cc1 [Prestw-Frag-3341, Nc1ccc(CS(=O)(=O)N2CCCC2)cc1]  1.256
67. Cc1cc(C)nc(O)n1 [Prestw-Frag-3247, Cc1cc(C)nc(O)n1]  1.288
68. Cc1ccccc1C(=O)Nc1ccccc1 [Prestw-Frag-3202, Cc1ccccc1C(=O)Nc1ccccc1]  1.357
69. FC(F)(F)c1nnc2n1CCNC2 [Prestw-Frag-3253, FC(F)(F)c1nnc2CNCCn12]  1.371
70. CN1CCN(CCCC(=O)c2ccc(F)cc2)CC1 [Prestw-Frag-3692, CN1CCN(CCCC(=O)c2ccc(F)cc2)CC1]  1.385
71. COc1ccc(CC(C)N)cc1 (stereo not drawn) [Prestw-Frag-3342, COc1ccc(CC(C)N)cc1]  1.446
